In series [1] the test system is mouse mast cell tumor P815 cells. Put plainly: In vivo efficacy in DBA/2 mouse model of subcutaneous homologous transplantation of P815 cells. The conditions noted are these: for Tumor volume (mm^3): average ±SEM; for TGI: Day 8, vs vehicle control. An excerpt: Test sample: the dimaleate of the compound of formula (I) of the present application (content: 99.7%), and Toceranib phosphate (content: 98.2%, commercially available), the concentration and dosage of administration of the test sample prepared in the following implementation are all calculated in terms of free alkali.
Test animal: the species is mouse; the strain is DBA/2 mouse; the age is 6-8 weeks old, and the weight is 19-24 g; and the gender is female.
Experimental methods and steps: mouse mast cell tumor P815 cells (ATCC-TIB-64) were adherent and cultured in vitro. The culture conditions were DMEM medium, 10 vol% fetal bovine serum, 1 vol% double antibody, and cultured in a cell incubator at 37 °C with 5% CO2. Conventional digestion treatment and passage were carried out twice a week with trypsin-EDTA. When the cell saturation reached 80-90% and the quantity satisfied the requirements, the cells were collected, counted and inoculated.
0.1 mL of PBS containing 5×10^5 P815 cells was subcutaneously inoculated into the subcutaneous area of the right forelimb axilla of each mouse. At day 8 after cell inoculation, when the average tumor volume reached 100 mm^3, group administration was started. The experiment was grouped into a negative control group (without an active ingredient), an administration group, and a positive control group (with the active ingredient Toceranib), with 8 mice in each group. The negative control (vehicle), the dimaleate of the compound of formula (I), and Toceranib phosphate were administered orally once daily for an 8-day administration period. Health status and mortality of animals were monitored every day. Routine examinations included observing the effects of tumor growth and drug treatment on daily behavioral performance of animals, such as behavioral activities, food and water intake (only visually), weight changes (measuring weight twice a week), appearance signs or other abnormal conditions. Table 1. Preparation methods of the test samples
Table 2. Grouping of experimental animals and administration protocols
The experimental indicators were to examine whether the tumor growth was inhibited, delayed or cured. The diameter of the tumor was measured with a vernier caliper. The calculation formula for tumor volume was: V = 0.5a × b^2 , [formula] wherein a and b represented the long diameter and the short diameter of the tumor, respectively. The anti-tumor efficacy of the compound was determined by TGI (%). TGI (%) reflects the rate of tumor growth inhibition. Calculation of TGI (%): TGI (%) = [1-(Average tumor volume at the end of administration in a certain treatment group - Average tumor volume at the start of administration in this treatment group) / (Average tumor volume at the end of treatment in the vehicle control group - Average tumor volume at the start of treatment in the vehicle control group)] ×100%.

The test system of series [2] is mouse mast cell tumor cells P815 cells (ATCC-TIB-64). Put plainly: MTT assay (thiazolyl blue colorimetric assay), inhibition of tumor cell proliferation. It counts as cell-based. Here is the method: Test sample: the dimaleate of the compound of formula (I) of the present application.
The inhibition effect of the dimaleate of the compound of formula (I) on the growth of mouse mast cell tumor cells P815 cells (ATCC-TIB-64) was detected by MTT assay (thiazolyl blue colorimetric assay), and IC50 (half inhibitory concentration) was calculated and obtained.
Background: Formazan colour is commonly taken as a measure of viable cells.

For the next series, the system named is canine mast cell tumor. Description: Anti-tumor effect in dogs with mast cell tumors (clinical cases). It counts as in vivo. Here is the method: (§1) Since May 2021, a total of 14 dogs with mast cell tumors have been collected and enrolled for treatment with a dimaleate of the compound of formula (I). Table 4: Clinical staging criteria for canine cutaneous mast cell tumors
(§2) The affected dogs with mast cell tumor were administered with the drug of the dimaleate of the compound of formula (I) at a dose of 2.0 mg/kg to 3.25 mg/kg (all doses were calculated based on free base, the same below), orally once every other day. For affected dogs with assessable solid tumors, baseline assessment was performed before the first trial medication. After the administration of the first trial medication, mass measurement and blood routine examination were performed every 2 weeks, and blood biochemical examination and imaging examination were performed every 4 weeks to evaluate the response to tumor treatment until disease progression, intolerable drug withdrawal due to treatment-related side effects, or death of enrolled dogs, and to evaluate the efficacy and safety of the compound of formula (I) in the treatment of a canine mast cell tumor and a breast tumor. The primary observation endpoints: objective response rate (ORR), disease control rate (DCR), progression-free survival (PFS), and overall survival (OS); complete response (CR), partial response (PR), stable disease (SD), and progressive disease (PD).

A short description of series [3]: Adverse reactions and safety in dogs with mast cell tumors under treatment (VCOG-CTCAE). It counts as in vivo. Here is the method:
as §1, §2
(Adverse event assessment criteria refer to VCOG-CTCAE (Veterinary cooperative oncology group-common terminology criteria for adverse events (VCOG-CTCAE) following chemotherapy or biological antineoplastic therapy in dogs and cats v1.1. Vet Comp Oncol. 2016)).

Setting [4] is: 14 dogs, 2.0 mg/kg to 3.25 mg/kg orally once every other day, n=4.

Structures are written as SMILES. “And” between values parts separate entries of the source, which are not always exact repeats. Identical values can stand only once.

Consider `Cc1[nH]c(/C=C2\C(=O)Nc3ccc(F)cc32)c(C)c1C(=O)NCCN1CCCC1` [Toceranib, reference compound], for which the “Tumor volume (mm^3)” value in series [1] (Day 0 after administration, 40mg/kg PO QD) was 100±4 mm^3; in series [1] (Day 2 after administration, 40mg/kg PO QD), 127±6 mm^3; in series [1] (Day 4 after administration, 40mg/kg PO QD), 231±14 mm^3; in series [1] (Day 6 after administration, 40mg/kg PO QD), 299±15 mm^3; in series [1] (Day 8 after administration, 40mg/kg PO QD, 40 mg/kg) it was 510 mm^3 and 510±38 mm^3. In addition, the TGI in series [1] (40 mg/kg PO QD, p < 0.001) was determined as 43.38%.

For `Cc1[nH]c(/C=C2\C(=O)Nc3ccc(F)cc32)c(C)c1NC(=O)CCN1CCN(C)CC1` [dimaleate of the compound of formula (I), N-(5-((Z)-(5-fluoro-2-carbonylindole-3-ylidene)methyl)-2,4-dimethyl-1H-pyrrol-3-yl)-3-(4-methylpiperazin-1-yl) propanamide], in series [2], inhibition was half-maximal at 474 nM (IC50). The “Tumor volume (mm^3)” value amounted to 100±4 mm^3 in series [1] (Day 0 after administration, 20mg/kg PO QD); 141±22 mm^3 in series [1] (Day 2 after administration, 20mg/kg PO QD); 244±35 mm^3 in series [1] (Day 4 after administration, 20mg/kg PO QD); 319±55 mm^3 in series [1] (Day 6 after administration, 20mg/kg PO QD); 483 ±93 mm^3 in series [1] (Day 8 after administration, 20mg/kg PO QD, listed as Compound of formula (I), 20 mg/kg); 483 mm^3 in series [1] (Day 8 after administration, 20mg/kg PO QD, listed as compound of formula (I), 20 mg/kg). For the same compound, the TGI in series [1] (20 mg/kg PO QD, p = 0.003) is given as 47.25%. Moreover, the “mass decreased compared with the baseline” value with canine mast cell tumor (Case 1 Golden Retriever, 3.07 mg/kg, 14 days (October 17)) came to 12%. In the series with canine mast cell tumor (Case 1 Golden Retriever, after excision, 2.63 mg/kg, postoperative days 47, 82, 117 and 145), the “recurrence of the mass” value was “no recurrence of the mass was seen on the skin”. For the same compound, the survival period result with canine mast cell tumor (Case 1 Golden Retriever, as of March 28, 2022, 66 doses) is recorded as “greater than 176 days”; in the series on canine mast cell tumor (Case 3 Labrador, as of April 17, 2022, medication 51 times), “greater than 126 days”; in the series with canine mast cell tumor (Case 4 Golden Retriever, 2.3-2.4 mg/kg, still under therapy), “greater than 259 days”. Besides, the total survival period in the series with canine mast cell tumor (Case 2 Tibetan mastiff, 2.84 mg/kg, died September 18, 2021) was found to be 117 days. Moreover, in the series with canine mast cell tumor (Case 3 Labrador, 2.42 mg/kg, after 14 days, non-target lesion), the “mass on the cephalic side of the vulva” value is recorded as “significantly reduced”. Further, in the series on canine mast cell tumor (Case 3 Labrador, day 42 and day 77 of treatment, non-target lesion), the “enlargement of the mass on the cephalic side of the vulva” value is “No enlargement”. Moreover, the Nasal ultrasound result in the series with canine mast cell tumor (Case 4 Golden Retriever, re-examined August 7) is “subcutaneous mass accompanied by invasive changes in adjacent turbinate bone”; in the series with canine mast cell tumor (Case 4 Golden Retriever, re-examined June 6) it was “subcutaneous mass is suspected of invading the nasal cavity”. Also, the “blood in urine (treatment-related clinical adverse reaction)” value in series [3] (14 dogs, 2.0 mg/kg to 3.25 mg/kg orally once every other day, n=1, occasionally) was determined as 7.1%. Moreover, in series [3] (14 dogs, 2.0 mg/kg to 3.25 mg/kg orally once every other day, n=3), the “vomiting (treatment-related clinical adverse reaction)” value amounted to 21.4%. Further, the “blood in stool (treatment-related clinical adverse reaction)” value in series [3] (setting [4]) worked out at 28.6%. Further, in series [3] (setting [4]), the “decreased appetite (treatment-related clinical adverse reaction)” value is 28.6%. Besides, in series [3] (14 dogs, 2.0 mg/kg to 3.25 mg/kg orally once every other day, n=9), the “diarrhea (treatment-related clinical adverse reaction)” value is 64.3%. Besides, the “grade 3 or 4 adverse reactions” value in series [3] (14 dogs, VCOG-CTCAE v1.1) is recorded as “No grade 3 or 4 adverse reactions were observed”. The “blood routine and serum biochemistry” value is given as “no obvious abnormality was seen compared with the baseline” in series [3] (Case 2 Tibetan mastiff, 2.84 mg/kg, June 21) and “no obvious abnormalities were found” in series [3] (Case 4 Golden Retriever, re-examined February 13, April 10, June 6 (August 7: blood routine only)). The “adverse effects after administration” value in series [3] (Case 4 Golden Retriever, stage I, no c-kit mutation, 2.4 mg/kg from January 2) is on record as “no significant adverse effects were observed”. In addition, the “adverse reactions after medication” value in series [3] (Case 4 Golden Retriever, 2.3 mg/kg from April 10 and from June 6) is recorded as “no obvious adverse reactions occurred after medication”; in series [3] (Case 5 Golden Retriever, 2.25 mg/kg from October 15), “no obvious adverse reactions occurred after medication”. For the same compound, the “adverse reactions after taking the medicine” value in series [3] (Case 4 Golden Retriever, continued at 2.4mg/kg from February 13) was “symptoms of soft stool and diarrhea occurred”. Also, the “adverse reactions during treatment” value in series [3] (Case 5 Golden Retriever, 2.75 mg/kg, reported at October 15) is “Thin and watery stools occurred during a period”. The “adverse reactions after dosing” value in series [3] (Case 5 Golden Retriever, 3.25 mg/kg from September 3) was “soft stools appeared once after dosing”; in series [3] (Case 5 Golden Retriever, dosage adjusted to 2.75 mg/kg on September 7), “no significant adverse reactions after dosing”.

One may read the TGI as how far tumour growth fell short of that in controls. Low readings indicate a weaker effect on the tumour, high ones a stronger effect on the tumour. The IC50 is the point on the concentration scale where inhibition reaches its midpoint. Higher therefore signals a need for much substance.

(Values after patent EP4663191A1, “USE OF TYROSINE KINASE INHIBITOR” (Qilu Animal Health Products Co., Ltd., priority 2023, dated 2024).)
